The values that follow come from PubChem BioAssay AID977614 (Broad Institute, 2014).

One may read the AC50 as the concentration at which the activity in the assay is half-maximal.

The source made the active and inactive calls.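 Rule for the calls: active = parasite count per well reduced by over 3 SD from the mean, with host cell number above 80% of untreated; inactive = the rest.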

For this assay, the system named is L. donovani amastigotes in THP-1 macrophages, DAPI imaging, 72 h. The assay can be described thus: antileishmanial activity in infected macrophages – imaging, THP-1 host macrophages, single concentration (AID 977614).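 Note: signal is the parasite per host cell ratio from DAPI stained kinetoplasts and nuclei.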

With `CC(=O)NC[C@H]1[C@@H](c2ccc(C#CC(C)C)cc2)[C@@H](CO)N1Cc1ccccn1`, the AC50 is > 10 µM (inactive).
`CCCC(=O)N1C[C@@H]2[C@H](c3ccccc31)[C@H](CO)N2C(=O)Nc1ccc(F)cc1`: the AC50 was > 10 µM (inactive).
`C[C@H]1CN([C@@H](C)CO)C(=O)CCCn2nncc2CO[C@@H]1CN(C)C(=O)Nc1ccccc1C(F)(F)F`: the AC50 is > 10 µM (inactive).
Regarding `COc1ccccc1-c1ccc([C@H]2[C@@H](CO)N(C(C)=O)[C@@H]2CN(C)C(C)=O)cc1`, the AC50 was > 10 µM (inactive).
Turning to `CN1[C@@H]2CNc3ccccc3[C@@H]2[C@@H]1CO`, the AC50 was > 10 µM (inactive).
The value for `COc1ccc(CN(C)C[C@H]2OCc3cnnn3CCCC(=O)N([C@@H](C)CO)C[C@@H]2C)cc1` was > 10 µM (inactive).
The figure for `C[C@@H]1CN([C@H](C)CO)C(=O)CCCn2nncc2CO[C@H]1CN(C)C(=O)CCC(F)(F)F` is > 10 µM (inactive).
The figure for `COc1ccc(CN2[C@@H](CO)[C@@H]3c4ccccc4N(C(=O)NC(C)C)C[C@@H]32)cc1` is > 10 µM (inactive); for `CC(=O)N1[C@H](CO)[C@H](c2ccccc2)[C@H]1CN(CC(C)C)C(=O)c1ccccn1` it is > 10 µM (inactive); for `C[C@@H]1CN([C@@H](C)CO)C(=O)CCCn2cc(nn2)CO[C@@H]1CN(C)C(=O)NC1CCCCC1` it is > 10 µM (inactive).
As to `CC(C)N(C[C@@H]1[C@H](c2ccccc2)[C@@H](CO)N1S(C)(=O)=O)C(=O)CN(C)C`, the AC50 was > 10 µM (inactive).
Consider `CCCNC(=O)N1C[C@H]2[C@@H](c3ccccc31)[C@@H](CO)N2Cc1cccc(OC)c1`, for which the AC50 is > 10 µM (inactive).
Consider `CC(C)NC[C@@H]1[C@H](c2ccc(C3=CCCCC3)cc2)[C@H](CO)N1S(C)(=O)=O`, for which the AC50 was > 10 µM (inactive).
Regarding `O=C(Nc1ccc(F)cc1)N1C[C@@H]2[C@H](c3ccccc31)[C@H](CO)N2C(=O)c1ccncc1`, the AC50 was > 10 µM (inactive).
Regarding `CCC(=O)NC[C@H]1N[C@H](CO)[C@@H]1c1ccc(-c2cccnc2)cc1`, the AC50 is > 10 µM (inactive).
`C[C@@H]1CN([C@@H](C)CO)C(=O)CCCn2cc(nn2)CO[C@H]1CN(C)C(=O)Nc1cccc(C(F)(F)F)c1`: the AC50 was > 10 µM (inactive).
Regarding `CN1[C@H](CO)[C@H]2c3ccccc3N(C(=O)Nc3cc(F)ccc3F)C[C@H]21`, the AC50 is > 10 µM (inactive).
On to `COc1ccc(C(=O)N2C[C@H]3[C@@H](c4ccccc42)[C@@H](CO)N3C(=O)Cc2ccccn2)cc1`, for which the AC50 was > 10 µM (inactive).
On to `C[C@@H]1CN([C@H](C)CO)C(=O)CCCn2nncc2CO[C@@H]1CN(C)CC1CCCCC1`, for which the AC50 was > 10 µM (inactive).
The figure for `C[C@H](CO)N1C[C@H](C)[C@H](CN(C)C(=O)Nc2ccccc2C(F)(F)F)OCc2cnnn2CCCC1=O` is > 10 µM (inactive); for `COCCN(C[C@H]1N[C@H](CO)[C@@H]1c1ccccc1)C(=O)NC1CCCC1` it is > 10 µM (inactive); for `OC[C@H]1N[C@@H](CNCC2CCC2)[C@@H]1c1ccc(C2=CCCCC2)cc1` it is > 10 µM (inactive).
The value for `COc1ccc(CN(C)C[C@@H]2OCc3cnnn3CCCC(=O)N([C@@H](C)CO)C[C@@H]2C)cc1` was > 10 µM (inactive).
The figure for `COc1ccc(NC(=O)N(C)C[C@H]2OCc3cnnn3CCCC(=O)N([C@H](C)CO)C[C@H]2C)c(OC)c1` is > 10 µM (inactive); for `CCNC[C@@H]1[C@H](c2ccccc2)[C@@H](CO)N1C(=O)Cc1ccccn1` it is > 10 µM (inactive).
As to `CCCNC(=O)N1[C@H](CO)[C@@H]2c3ccccc3N(C(=O)Nc3cccc(Cl)c3)C[C@@H]21`, the AC50 is > 10 µM (inactive).
The figure for `CC(=O)N1[C@H](CNC(=O)C2CC2)[C@@H](c2ccc(-c3ccccc3)cc2)[C@@H]1CO` is > 10 µM (inactive); for `CNC[C@H]1OCc2cn(nn2)CCCC(=O)N([C@@H](C)CO)C[C@H]1C` it is > 10 µM (inactive).
Take `Cc1ccc(S(=O)(=O)N2C[C@@H]3[C@H](c4ccccc42)[C@@H](CO)N3Cc2cccnc2)cc1`: the AC50 is > 10 µM (inactive).
For the compound `C[C@@H]1CN([C@@H](C)CO)C(=O)CCCn2nncc2CO[C@H]1CN(C)C(=O)Nc1ccccc1C(F)(F)F`, the AC50 is > 10 µM (inactive).
The value for `Cc1cccc(S(=O)(=O)N2C[C@H]3[C@@H](c4ccccc42)[C@@H](CO)N3C(=O)c2ccccc2)c1` was > 10 µM (inactive); that for `O=S(=O)(NC[C@@H]1[C@H](c2ccccc2)[C@@H](CO)N1CC1CC1)c1ccccc1` was > 10 µM (inactive).
With `O=C(Cc1ccccn1)N1[C@H](CO)[C@@H]2c3ccccc3NC[C@@H]21`, the AC50 was > 10 µM (inactive).
For `O=C(CC(F)(F)F)N1C[C@@H]2[C@H](c3ccccc31)[C@@H](CO)N2Cc1cccnc1`, the AC50 is > 10 µM (inactive).
For `COc1ccccc1CN1[C@H](CO)[C@H]2c3ccccc3N(C(=O)C3CCOCC3)C[C@H]21`, the AC50 is > 10 µM (inactive).
As for `CCC(=O)N1[C@H](CO)[C@@H]2c3ccccc3N(C(=O)c3cnccn3)C[C@@H]21`, the AC50 is > 10 µM (inactive).
The value for `O=S(=O)(c1ccccc1)N1C[C@H]2[C@@H](c3ccccc31)[C@@H](CO)N2Cc1ccccn1` was > 10 µM (inactive); that for `CC(C)NC(=O)N1[C@H](CNC(=O)CN(C)C)[C@H](c2ccccc2)[C@@H]1CO` was > 10 µM (inactive); that for `CC(=O)N1[C@@H](CO)[C@H](c2ccccc2)[C@@H]1CN(C)S(=O)(=O)c1ccccc1` was > 10 µM (inactive).
`OC[C@H]1[C@H]2c3ccccc3NC[C@H]2N1CC1CCOCC1`: the AC50 was > 10 µM (inactive).
Regarding `CC(=O)NC[C@H]1[C@H](c2ccc(C3=CCCC3)cc2)[C@@H](CO)N1Cc1cccnc1`, the AC50 is > 10 µM (inactive).
The figure for `COc1ccccc1C(=O)N1C[C@H]2[C@@H](c3ccccc31)[C@H](CO)N2C(=O)Cc1ccccc1` is > 10 µM (inactive).
On to `CCCNC(=O)N1C[C@@H]2[C@H](c3ccccc31)[C@@H](CO)N2C(=O)Nc1ccccc1F`, for which the AC50 is > 10 µM (inactive).
In the case of `CN1[C@@H]2CN(C(=O)Nc3cc(F)ccc3F)c3ccccc3[C@@H]2[C@@H]1CO`, the AC50 was > 10 µM (inactive).
In the case of `C[C@H]1CN([C@@H](C)CO)C(=O)CCCn2nncc2CO[C@@H]1CN(C)C(=O)Nc1ccc2c(c1)OCCO2`, the AC50 was > 10 µM (inactive).
As for `O=C(c1ccccc1F)N1C[C@H]2[C@@H](c3ccccc31)[C@H](CO)N2Cc1ccc2c(c1)OCO2`, the AC50 was > 10 µM (inactive).
`C[C@@H]1CN([C@@H](C)CO)C(=O)CCCn2nncc2CO[C@@H]1CN(C)C(=O)Nc1ccc(-c2cccs2)cc1`: the AC50 was > 10 µM (inactive).
The figure for `O=C(C1CC1)N1C[C@@H]2[C@H](c3ccccc31)[C@@H](CO)N2C(=O)c1ccccc1` is > 10 µM (inactive); for `O=C(Nc1ccc(F)cc1)N1C[C@@H]2[C@H](c3ccccc31)[C@H](CO)N2Cc1ccccc1Cl` it is > 10 µM (inactive).
`CCN(C[C@@H]1[C@H](c2ccccc2)[C@H](CO)N1C(=O)COC)S(C)(=O)=O`: the AC50 is > 10 µM (inactive).
Turning to `COc1ccc(C(=O)N2C[C@@H]3[C@H](c4ccccc42)[C@@H](CO)N3C(=O)Cc2ccccn2)cc1`, the AC50 is > 10 µM (inactive).
As for `C[C@H](CO)N1C[C@H](C)[C@@H](CN(C)CC2CCCCC2)OCc2cnnn2CCCC1=O`, the AC50 is > 10 µM (inactive).
Take `CCC(=O)N(C)C[C@@H]1[C@@H](c2ccccc2)[C@H](CO)N1Cc1cccnc1`: the AC50 was > 10 µM (inactive).
Take `O=C(CC1CC1)N1[C@@H](CO)[C@@H]2c3ccccc3N(S(=O)(=O)c3ccccc3F)C[C@@H]21`: the AC50 is > 10 µM (inactive).
As for `C[C@@H]1CN([C@H](C)CO)C(=O)CCCn2nncc2CO[C@H]1CN(C)S(=O)(=O)c1cn(C)cn1`, the AC50 is > 10 µM (inactive).
In the case of `C[C@@H]1CN([C@@H](C)CO)C(=O)CCCn2nncc2CO[C@@H]1CN(C)S(=O)(=O)c1ccc(Oc2ccccc2)nc1`, the AC50 is > 10 µM (inactive).
The figure for `CC(=O)N1[C@H](CO)[C@H](c2ccc(-c3ccccc3F)cc2)[C@@H]1CNC(C)C` is > 10 µM (inactive).
With `C[C@H]1CN([C@@H](C)CO)C(=O)CCCn2cc(nn2)CO[C@@H]1CN(C)C(=O)c1ccc(N2CCN(C)CC2)cc1`, the AC50 is > 10 µM (inactive).
For `COc1ccc(CN(C)C[C@@H]2OCc3cnnn3CCCC(=O)N([C@H](C)CO)C[C@@H]2C)cc1`, the AC50 was > 10 µM (inactive).
For the compound `C[C@H](CO)N1C[C@H](C)[C@H](CN(C)C(=O)Oc2cccc3ccccc23)OCc2cnnn2CCCC1=O`, the AC50 was > 10 µM (inactive).
Take `COc1ccccc1C(=O)N1C[C@H]2[C@@H](c3ccccc31)[C@@H](CO)N2CC1CCCC1`: the AC50 is > 10 µM (inactive).
The figure for `CC(C)N(C[C@H]1[C@@H](c2ccccc2)[C@H](CO)N1S(C)(=O)=O)C(=O)CN(C)C` is > 10 µM (inactive); for `CCC(=O)N1[C@H](CO)[C@H](c2ccc(C#CC(C)(C)O)cc2)[C@@H]1CN(C)C(C)=O` it is > 10 µM (inactive); for `O=C(CN1CCOCC1)N1[C@@H]2CNc3ccccc3[C@@H]2[C@@H]1CO` it is > 10 µM (inactive).
Consider `C[C@H](CO)N1C[C@H](C)[C@H](CN(C)C(=O)Nc2ccc3c(c2)OCCO3)OCc2cnnn2CCCC1=O`, for which the AC50 was > 10 µM (inactive).
Consider `C[C@@H]1CN([C@H](C)CO)C(=O)CCCn2nncc2CO[C@H]1CN(C)S(=O)(=O)c1ccc2c(c1)OCCCO2`, for which the AC50 was > 10 µM (inactive).
For `O=C(CN1CCOCC1)NC[C@H]1N[C@H](CO)[C@@H]1c1ccc(-c2ccccc2)cc1`, the AC50 was > 10 µM (inactive).
Turning to `C[C@H]1CN([C@@H](C)CO)C(=O)CCCn2nncc2CO[C@H]1CN(C)Cc1ccccc1C(=O)O`, the AC50 was > 10 µM (inactive).
In the case of `C[C@@H]1CN([C@H](C)CO)C(=O)CCCn2nncc2CO[C@H]1CN(C)C(=O)Nc1cccc(Oc2ccccn2)c1`, the AC50 was > 10 µM (inactive).
The value for `C[C@H](CO)N1C[C@H](C)[C@@H](CN(C)C(=O)c2ccc3ccn(C)c3c2)OCc2cnnn2CCCC1=O` was > 10 µM (inactive).
